Values joined by “and” are separate entries in the source; they are usually repeats but may differ in a detail not shown here. Equal values may be shown once.
Experiments:
A431 cells [1] = experiment: SRB growth inhibition assay in A431 cells; format: cell-based; conditions: Homo sapiens, A-431, 96 h, read-out: IC50 growth inhibition
EGFR [2] = biological target: T1, EGFR (Homo sapiens, UniProt P00533); experiment: EGFR TK ELISA with PGT substrate (competitive binding at the ATP site); format: biochemical; set-up: purchased BIOMOL (Plymouth Meeting); also a gift from Pfizer Inc
T1 sequence (P00533 25-1210): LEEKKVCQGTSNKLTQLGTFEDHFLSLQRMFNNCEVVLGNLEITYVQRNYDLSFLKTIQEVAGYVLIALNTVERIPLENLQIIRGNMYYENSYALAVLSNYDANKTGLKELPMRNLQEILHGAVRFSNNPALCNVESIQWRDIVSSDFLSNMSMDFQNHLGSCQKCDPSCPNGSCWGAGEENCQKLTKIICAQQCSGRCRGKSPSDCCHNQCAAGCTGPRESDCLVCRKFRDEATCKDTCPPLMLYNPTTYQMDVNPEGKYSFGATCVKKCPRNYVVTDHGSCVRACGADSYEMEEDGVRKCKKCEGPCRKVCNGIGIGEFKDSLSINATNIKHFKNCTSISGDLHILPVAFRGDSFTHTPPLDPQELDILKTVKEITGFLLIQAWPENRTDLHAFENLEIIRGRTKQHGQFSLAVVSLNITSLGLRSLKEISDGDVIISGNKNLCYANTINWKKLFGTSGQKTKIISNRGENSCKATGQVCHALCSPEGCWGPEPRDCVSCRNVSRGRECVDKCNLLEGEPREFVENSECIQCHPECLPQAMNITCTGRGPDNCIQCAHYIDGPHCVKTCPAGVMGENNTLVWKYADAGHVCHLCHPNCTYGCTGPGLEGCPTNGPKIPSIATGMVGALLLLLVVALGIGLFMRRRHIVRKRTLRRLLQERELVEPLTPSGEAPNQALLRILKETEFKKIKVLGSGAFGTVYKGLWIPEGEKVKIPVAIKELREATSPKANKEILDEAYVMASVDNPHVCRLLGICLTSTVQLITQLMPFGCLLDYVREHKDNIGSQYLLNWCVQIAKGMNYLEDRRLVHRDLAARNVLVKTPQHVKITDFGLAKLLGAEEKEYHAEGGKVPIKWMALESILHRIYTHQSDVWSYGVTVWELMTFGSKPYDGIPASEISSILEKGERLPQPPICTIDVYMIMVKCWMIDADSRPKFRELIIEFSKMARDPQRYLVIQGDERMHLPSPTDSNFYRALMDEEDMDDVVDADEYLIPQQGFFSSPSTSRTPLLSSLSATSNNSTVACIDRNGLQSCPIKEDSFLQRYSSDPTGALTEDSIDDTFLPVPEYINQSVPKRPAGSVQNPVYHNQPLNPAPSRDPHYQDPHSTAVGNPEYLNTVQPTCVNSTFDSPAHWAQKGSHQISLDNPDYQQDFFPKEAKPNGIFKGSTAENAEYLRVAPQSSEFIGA
Procedure: The ability of the combi-molecules to block EGFR TK activity was determined by an ELISA assay using poly(L-glutamic acid-L-tyrosine, 4:1) PGT as a substrate and commercially available EGFR.
Nunc MaxiSorp 96-well plates were incubated overnight at 37° C. with 100μL per well of 0.25 mg/mL PGT in PBS. Excess PGT was removed and the plates were washed 3 times with Tween 20 (0.1%) in PBS. […] The compound was added and phosphorylation initiated by the addition of ATP (20 μM). After 8 min at room temperature with constant shaking, the reaction was terminated by the aspiration of the reaction mixture and by rinsing the plate 4 times with wash buffer (Tween 20 (0.1%) in PBS). […] Antibody was removed by aspiration, and the plates washed 4 times with wash buffer. The signals were developed by the addition of 50 μL per well of TMB peroxidase substrate (Kierkegaard and Perry Laboratories, Gaithersberg, Md.).
This assay is similar to the one previously described. Nunc MaxiSorp 96-well plates were incubated overnight at 37° C. with 100 μl/well of 25 ng/ml PGT in PBS. Excess PGT was removed and the plates were washed three times with wash buffer (Tween 20 (0.1%) in PBS). […] The compound was added and phosphorylation initiated by the addition of ATP (20 μM). After 8 min at room temperature with constant shaking, the reaction was terminated by aspirating the mixture and by rinsing the plates four times with wash buffer Tween 20 (0.1%) in PBS. […] Antibody was removed by aspiration, and the plate washed four times with wash buffer. The signals were developed by the addition of 50 μl/well of 3,3′,5,5′-tetramethylbenzidine (TMB) peroxidase substrate (Kierkegaard and Perry Laboratories, Gaithersberg, Md., USA).

A431 cells [3] = experiment: SRB growth inhibition assay in A431 cells; format: cell-based, human
Procedure: All growth inhibitory activities were evaluated using the SRB assay (33). Briefly, following drug treatment, cells were fixed using 50 μL of cold trichloroacetic acid (50%) for 60 min at 4° C., washed five times with tap water, and stained for 30 min at room temperature with SRB (0.4%) dissolved in acetic acid (0.5%). The plates were rinsed five times with 1% acetic acid and allowed to air dry. The resulting colored residue was dissolved in 200 μL of Tris base (10 mM), and the optical density read for each well at 540 nm using a Bio-Rad microplate reader (model 2550). […]
Cell monolayers were continuously exposed to different concentrations of each drug for 72 h. Under short exposure, they were treated with each drug for 2 h and allowed to recover for 72 h in drug-free medium.
To study the reversibility of the antiproliferative effects of our compounds, cells were grown to 70% confluence in 96-well plates and subsequently washed twice with PBS, after which they were exposed to serum-free medium for 18 h. Under continuous exposure, the cells were exposed to different concentrations of each drug for 120 h. Under short exposure, they were exposed to each drug for 2 h, after which they were allowed to recover for 120 h in drug free medium. Growth inhibitory activities were evaluated using the SRB assay as described above.

A431 cells [4] = experiment: Alkaline comet assay for DNA damage in A431 cells; conditions: for DNA damage (comet tail moment): A431, 30 min or 2 h exposure
Procedure: A431 cells were exposed to drugs for 30 min or 2 h, and harvested with trypsin-EDTA. The cells were subsequently collected by centrifugation and re-suspended in PBS. The resulting cell suspension was diluted to approximately 10^6 cells, and mixed with agarose (1%) in PBS at 37° C. in a 1:10 dilution. The gels were cast on Gelbond strips (Mandel Scientific, Guelph, Canada) using gel casting chambers, as previously described (32), then immediately placed into a lysis buffer [2.5 M NaCl, 0.1 M tetra-sodium EDTA, 10 mM tris-base, 1% (w/v) N-lauryl sarcosine, 10% (v/v) DMSO and 1% (v/v) Triton X-100]. After being kept on ice for 30 min, the gels were gently rinsed with distilled water and then immersed in a second lysis buffer [2.5 M NaCl, 0.1 M tetra-sodium EDTA, 10 mM tris-base], containing 1 mg/ml proteinase K for 60 min at 37° C. Thereafter, the gels were rinsed with distilled water, incubated in alkaline electrophoresis buffer for 30 min at 37° C., and electrophoresed at 300 mA for 60 min. The gels were subsequently rinsed with distilled water and placed into 1 M ammonium acetate for 30 min. They were further soaked in 100% ethanol for 2 h, dried overnight and subsequently stained with SYBR Gold ( 1/10000 dilution of stock supplied from Molecular Probes, OR) for 20 min. For evaluation of comets, DNA damage was assessed using the Tail Moment parameter (i.e. the product of the distance between the barycentres of the head and the tail of the comet. A minimum of 50 cell comets were analyzed for each sample using ALKOMET v3.1 software, and values are an average of tail moments for the entire cell population.
Cell suspensions were diluted to approximately 10^6 cells, and mixed with agarose (1%) in PBS at 37° C. in a 1:10 dilution. The gels were cast on Gelbond strips (Mandel Scientific, Guelph, Canada) using gel casting chambers, as previously described (31), and then immediately placed in a lysis buffer [2.5 M NaCl, 0.1 M tetra-sodium EDTA, 10 mM Tris-base, 1% (w/v) N-lauryl sarcosine, 10% (v/v) DMSO, and 1% (v/v) Triton X-100, pH 10.0]. After being kept on ice for 30 min, the gels were gently rinsed with distilled water and immersed in a second lysis buffer (2.5 M NaCl, 0.1 M tetrasodium EDTA, 10 mM Tris-base) containing 1 mg/ml proteinase K for 60 min at 37° C. Thereafter, the gels were rinsed with distilled water, incubated in alkaline electrophoresis buffer for 30 min at 37° C., and electrophoresed at 300 mA for 60 min. The gels were subsequently rinsed with distilled water and placed in 1 M ammonium acetate for 30 min. They were soaked in 100% ethanol for 2 h, dried overnight, and subsequently stained with SYBR Gold ( 1/10000 dilution of stock supplied from Molecular Probes, Eugene, Oreg.) for 20 min. Comets were visualized at 330× magnification and DNA damage was quantitated using the Tail Moment parameter (i.e., the distance between the barycenter of the head and the tail of the comet multiplied by the percentage of DNA within the tail of the comet). A minimum of 50 cell comets were analyzed for each sample, using ALKOMET version 3.1 image analysis software, and values are averages of tail moments for the entire cell population per sample.

[5] = biological target: T2, cytoplasmic domain of the insulin receptor β subunit (Homo sapiens, UniProt P06213); experiment: insulin receptor kinase ELISA; format: biochemical; conditions: 1-100 μM range
T2 construct: Baculovirus-expressed cytoplasmic domain of the insulin receptor β subunit; purchased Biomol Research laboratories Inc., USA; host or cells: Baculovirus expression
T2 sequence (P06213 980-1382 limits assumed): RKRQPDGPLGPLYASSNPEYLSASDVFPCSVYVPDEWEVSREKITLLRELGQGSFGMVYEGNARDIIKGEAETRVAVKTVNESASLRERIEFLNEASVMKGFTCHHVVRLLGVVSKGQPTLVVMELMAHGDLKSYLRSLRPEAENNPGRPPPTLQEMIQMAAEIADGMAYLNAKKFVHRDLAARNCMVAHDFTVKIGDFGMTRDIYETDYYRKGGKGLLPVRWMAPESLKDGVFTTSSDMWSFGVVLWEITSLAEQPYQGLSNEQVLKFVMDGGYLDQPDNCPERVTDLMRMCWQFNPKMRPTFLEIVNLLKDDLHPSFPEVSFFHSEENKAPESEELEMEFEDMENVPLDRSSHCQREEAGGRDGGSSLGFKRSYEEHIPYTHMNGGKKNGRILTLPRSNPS
Procedure: (§1) Conditions for the c-src and insulin kinase assays were similar to those of the EGFR kinase assay, with the exception of the addition of 1 mM manganese chloride to the assay buffer, and a final ATP concentration of 100 μM. The reaction was terminated by the addition of 50 μl of a 250 mM solution of EDTA prior to aspiration.

EGFR [6] = biological target: T1, EGFR; experiment: Reverse EGFR autophosphorylation (reversibility) assay in A431 cells; format: cell-based; conditions: A431, 30 μM, 90 min
Procedure: To test this hypothesis, the reversibility assay (40, 41) was used, according to which the cells are treated with the drug for 90 min after which the culture medium is repeatedly removed and replaced 3 times, followed by the measurement of EGFR autophosphorylation.
A431 cells were grown to confluence in 6-well plates and then incubated in serum-free medium for 18 h (41). Duplicate sets of cells were then treated with 30 μM of each compound for 90 min. One set of cells was then stimulated with EGF (100 ng/ml) for 10 min and extracts were made as described under the Western blotting procedure above. The other set of cells was washed free of each compound with warmed serum-free media and incubated for 2 h. Thereafter, the cells were washed, incubated for another 2 h, washed again, and then incubated for a further 4 h. This set of cells was then stimulated with EGF and extracts were prepared as for the first set.

human c-src = biological target: T3, human c-src (Homo sapiens, UniProt P12931); experiment: c-src kinase ELISA; format: biochemical; conditions: 1-100 μM range
T3 construct: purchased Upstate NY; host or cells: Baculovirus expression
T3 sequence (P12931 whole entry): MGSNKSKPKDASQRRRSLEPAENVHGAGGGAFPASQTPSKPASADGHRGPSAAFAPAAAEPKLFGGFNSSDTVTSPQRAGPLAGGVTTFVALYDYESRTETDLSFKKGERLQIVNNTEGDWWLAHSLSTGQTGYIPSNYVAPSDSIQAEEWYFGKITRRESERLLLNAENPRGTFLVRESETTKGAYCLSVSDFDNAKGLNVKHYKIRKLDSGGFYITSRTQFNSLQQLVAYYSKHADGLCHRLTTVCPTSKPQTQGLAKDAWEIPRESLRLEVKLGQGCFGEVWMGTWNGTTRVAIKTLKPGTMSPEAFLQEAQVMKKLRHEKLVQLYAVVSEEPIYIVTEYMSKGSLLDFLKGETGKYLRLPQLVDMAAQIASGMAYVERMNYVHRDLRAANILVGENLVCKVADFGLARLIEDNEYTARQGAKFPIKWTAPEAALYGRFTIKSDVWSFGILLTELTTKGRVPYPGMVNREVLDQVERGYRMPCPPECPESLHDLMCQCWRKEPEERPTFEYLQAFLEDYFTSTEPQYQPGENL
Procedure: as §1

NIH3T3HER14 cells = experiment: Growth factor-stimulated proliferation in NIH3T3HER14 cells (SRB); format: cell-based, mouse; conditions: NIH3T3HER14, 72 h
Procedure: To study the effect of our compounds on growth factors stimulated proliferation, cells were grown to 70% confluence in 48-well plates and washed twice with PBS, after which they were exposed to serum-free medium for 18 h. The cells were then exposed to each drug and growth factors (EGF, TGFα, PDGF or serum) for 72 h and cell growth measured using the sulforhodamine B (SRB) assay (33). Briefly, following drug treatment, cells were fixed using 50 μl of cold trichloroacetic acid (50%) for 60 min at 4° C., washed five times with tap water, and stained for 30 min at room temperature with SRB (0.4%) dissolved in acetic acid (0.5%). The plates were rinsed five times with 1% acetic acid and allowed to air dry. […] Each point represents the average of at least two independent experiments run in triplicate.

[7] = biological target: T2, cytoplasmic domain of the insulin receptor β subunit; conditions: read-out: IC50 insulin receptor (positive control); cited from earlier work
[8] = Degradation in serum-containing cell culture medium (UV, HPLC); format: in vitro ADME; conditions: bovine, serum-containing cell culture medium (RPMI with 10% serum); RPMI with 10% serum, 37° C.; read-out: half-life (t1/2) by UV spectrophotometry at 340 nm
Procedure: Thereafter, proteins were precipitated by the addition of acetonitrile (3.5 ml) and the supernatant collected by centrifugation. […] The operating mode was isocratic and two solutions, “A” (50% acetonitrile) and “B” (50% water), were used with a 0.5 ml/min flow rate and a 5 μL injection volume. […] For the rapid quantitation of metabolite, a less polar acetonitrile-water (70:30) eluent was used.
The half-life was estimated by a one-phase exponential decay curve-fit method using the GraphPad software package (GraphPad Software, Inc., San Diego, Calif.).
The half-life of BJ2000 under physiological conditions was studied by UV-spectrophotometry. BJ2000 was dissolved in a minimum volume of DMSO, diluted with RPMI-1640 supplemented with 10% FBS, and absorbencies read at 340 nm in a UV cell maintained at 37° C. with a circulating water bath. The half-life was estimated by a one-phase exponential decay curve-fit method, using the GraphPad software package (GraphPad software, Inc., San Diego, Calif., USA).
Proteins were thereafter precipitated by the addition of acetonitrile (3.5 ml), and the supernatant collected by centrifugation. […] HPLC analyses were performed on a Hewlett Packard 1090 liquid chromatograph, using a Waters C4 15-μm 300×3.9-mm reverse phase column to characterize and quantitate the products resulting from the degradation of BJ2000. […] The peaks were detected at 250 nm.

A431 cells [9] = experiment: Colony forming (clonogenic) assay in A431 cells; conditions: Homo sapiens, A-431, 144 h, read-out: IC50 colony formation
EGFR [10] = biological target: T1, EGFR; experiment: cell-based
Procedure: The inhibition of receptor autophosphorylation in viable cells was determined by anti-phosphotyrosine Western Blots. A431 cells were pre-incubated overnight for 24 h at 37° C. in a 6-well plate (1×10^6) with 0.1% serum, after which they were exposed to a range of doses for each drug for 2 h and subsequently treated with 50 ng/mL EGF for 30 min at 37° C. The cells were thereafter washed with PBS and re-suspended in cold lysis buffer [50 mM Tris-HCl pH 7.5; 150 mM NaCl; 1% NP40, 1 mM EDTA; 5 mM NaF; 1 mM Na3VO4; protease inhibitor tablet (Roche Biochemicals, Laval, Canada)]. The lysates were kept on ice for 30 min and collected by centrifugation at 10 000 rpm for 20 min at 4° C. The protein concentrations were determined against a standardized control using the Bio-Rad protein assay kit (Bio-Rad Laboratories, Hercules, Calif.). […] Non-specific binding on the PVDF membrane was minimized with a blocking buffer containing nonfat dry milk (3%) in PBS. The membrane was blotted with primary antibodies [either antiphosphotyrosine antibody (UBI, Lake Placid, N.Y.) for the detection of phosphotyrosine, or anti-EGFR (Neomarkers, Fremont, Calif.) for the determination of corresponding receptor levels], and anti-β-tubulin (Neomarkers, Fremont, Calif.) for the detection of equal loading. Thereafter, blots were incubated with HRP-goat anti-mouse antibody (1:200 dilution; Bio-Rad Laboratories, Hercules, Calif.) and the bands visualized with an enhanced chemiluminescence system (Amersham Pharmacia Biotech, Buckinghamshire, UK). Band intensities were measured using the SynGene GeneTools software package (Cambridge, UK).
The inhibition of receptor autophosphorylation in viable cells was determined by anti-phosphotyrosine Western Blots. […] Protein concentrations were determined against a standardized control using the Bio-Rad protein assay kit (Bio-Rad Laboratories, Hercules, Calif.). […] Band intensities were measured using the SynGene GeneTools software package (Cambridge, UK).

[11] = tested on: NIH3T3 and NIH3T3HER14 cells; experiment: MTT cytotoxicity assay in NIH3T3 / NIH3T3HER14; format: cell-based, mouse
Procedure: The cytotoxic effects of our compounds were evaluated using the 3-(4,5-dimethylthiazo-2-yl)-2,5-diphenyltetrazolium bromide (MTT) assay (42) with minor modifications. Briefly, cells were grown in 24-well plates and then exposed to the compounds for 96 h. MTT (50μl) of (5 mg/ml in sterile PBS) was added to 500 μl of media and the plates were incubated for 2-3 h at 37° C. […] Each point represents the average of at least two independent experiments run in duplicate.

[12] = Homo sapiens, A-431, read-out: IC50 growth inhibition
[13] = Homo sapiens, A-431, 72 h, 72 h continuous exposure, SRB, A431, read-out: IC50 growth inhibition
[14] = ELISA, PGT substrate, purified EGFR, ATP 20 μM, 8 min, read-out: IC50, inhibition of EGFR TK (competitive binding at ATP site)

Cc1cccc(Nc2ncnc3ccc(N(C)C(=O)NCCCl)cc23)c1
melting point: 150 to 151 °C (dec.)

O=NN(CCCl)C(=O)NCCCl [BCNU, bis-chloroethyl-N-nitrosourea, reference compound]
IC50 (A431 cells [1]): 40 µM

COCCNN=Nc1ccc2ncnc(Nc3cccc(Br)c3)c2c1 [D R1=MeOCH2CH2—]
IC50 (EGFR [2]; Table 1, means and SE's of two separate experiments, read-out: IC50 (μM), inhibition of EGFR tyrosine kinase activity): 0.071 ± 0.029 µM

COCCNN=Nc1ccc2ncnc(Nc3cccc(C)c3)c2c1 [E R1=MeOCH2CH2—]
IC50 (EGFR [2]): 0.196 ± 0.031 µM

Nc1ccc2ncnc(Nc3cccc(Cl)c3)c2c1 [FD105]
IC50 (A431 cells [3]; [12]): > 100 µM
DNA damage (comet tail moment) (A431 cells [4]): non-DNA damaging agent
effect on insulin receptor TK [5]: nor did it exert any effect on insulin receptor TK
EGF-dependent EGFR autophosphorylation immediately after drug exposure (EGFR [6]): completely suppressed
effect on c-src TK activity (human c-src): did not block c-src TK activity
concentration giving 100% growth inhibition (NIH3T3HER14 cells; EGF or TGFα-induced proliferation): 1 µM
concentration giving 100% inhibition (NIH3T3HER14 cells; PDGF-stimulated growth): approximately 30 μM

CNc1ccc2ncnc(Nc3cccc(C)c3)c2c1 [FD110]
IC50 (EGFR [2]): ~0.05 µM

Cc1cccc(Nc2ncnc3ccc(N(C)C(=O)N(CCCl)N=O)cc23)c1 [FD137, N-(2-Chloroethyl)-N′-methyl-N′-(4-m-tolylaminoquinazolin-6-yl)-N-nitrosourea]
melting point: 150 to 151 °C (dec.)
fold more potent than BCNU (A431 cells [3]): 50 fold
level of DNA lesions compared with BCNU (A431 cells [4]; A431): lower levels of DNA lesions than BCNU
DNA damage (comet tail moment) (A431 cells [4]): dose-dependent increase in DNA single strand breaks
IC50 (A431 cells [1]): 0.8 µM

CC(=O)OCOC(c1ccc2ccccc2c1)P(=O)(OCOC(C)=O)OCOC(C)=O (centres unmarked) [HNPMA-(AM)3]
IC50 [7]: 100 µM

CNN=Nc1ccc2ncnc(Nc3cccc(C)c3)c2c1 [SMA41]
IC50 (A431 cells [3]; 72 h continuous exposure, SRB, A431, read-out: IC50 growth inhibition): ~30 µM
IC50 (A431 cells [3]; Homo sapiens, A-431, 2 h exposure then 72 h recovery in drug-free medium, SRB, A431, read-out: IC50 growth inhibition): 36 µM
IC50 (A431 cells [3]; [13]): 36 µM
concentration range with significant comet tail moment / DNA damage (A431 cells [4]; A431, 30 min and 2 h exposure): 6 to 25 µM and 6.25 to 25 µM
DNA damage (comet tail moment) (A431 cells [4]): capable of inducing DNA damage in a dose-dependent manner
concentration range with nuclear condensation (A431 cells [4]; A431, 2 h): 25 to 100 µM
half-life [8]: ~30 min
IC50 (A431 cells [9]): 4 µM

Cc1cccc(Nc2ncnc3ccc(N)cc23)c1 [SMA52, 6-amino-4-[(m-tolyl)amino]quinazoline]
IC50 (A431 cells [3]; Homo sapiens, A-431, 72 h, read-out: IC50 growth inhibition): 59 µM
IC50 (A431 cells [3]; [12]): > 100 µM
DNA damage (comet tail moment) (A431 cells [4]): does not possess DNA damaging properties
IC50 (EGFR [2]): 1.02 µM
IC50 (EGFR [2]; [14]): 1 µM
IC50 (A431 cells [9]): 3.7 µM
IC50 (EGFR [10]): 8.44 µM

Cn1nnc2c(C(N)=O)ncn2c1=O [TEM, temozolomide, reference compound]
antiproliferative activity under short and continuous exposure (A431 cells [3]; 2 h + 72 h recovery and 72 h continuous, A431): inactive
IC50 (A431 cells [3]; [13]): 366 µM
IC50 (EGFR [2]; [14]): > 100 µM
IC50 (EGFR [10]): > 100 µM
fold greater cytotoxic activity in EGFR transfectant NIH3T3HER14 than in parental NIH3T3 [11]: no differential cytotoxicity

— patent publication US7572798B2, “Combi-molecules having signal transduction inhibitory properties and DNA damaging properties” (McGill University, priority 2001, dated 2009)
